Measured values taken from ChEMBL document CHEMBL4261615, “Design, synthesis, biological evaluation and cellular imaging of imidazo[4,5-b]pyridine derivatives as potent and selective TAM inhibitors” (Bioorg Med Chem, 2018).
Active and inactive are the calls of the source. No cut-off for these calls is given here.

Key:
[1] = target: T1, Tyrosine-protein kinase Mer (Homo sapiens) (UniProt Q12866); assay: Inhibition of recombinant GST-tagged human Mer (578 to 872 residues) cytoplasmic domain expressed in Baculovirus system using poly (Glu-Ala-Tyr) peptide as substrate after 1.5 hrs by ELISA
T1 sequence (whole entry): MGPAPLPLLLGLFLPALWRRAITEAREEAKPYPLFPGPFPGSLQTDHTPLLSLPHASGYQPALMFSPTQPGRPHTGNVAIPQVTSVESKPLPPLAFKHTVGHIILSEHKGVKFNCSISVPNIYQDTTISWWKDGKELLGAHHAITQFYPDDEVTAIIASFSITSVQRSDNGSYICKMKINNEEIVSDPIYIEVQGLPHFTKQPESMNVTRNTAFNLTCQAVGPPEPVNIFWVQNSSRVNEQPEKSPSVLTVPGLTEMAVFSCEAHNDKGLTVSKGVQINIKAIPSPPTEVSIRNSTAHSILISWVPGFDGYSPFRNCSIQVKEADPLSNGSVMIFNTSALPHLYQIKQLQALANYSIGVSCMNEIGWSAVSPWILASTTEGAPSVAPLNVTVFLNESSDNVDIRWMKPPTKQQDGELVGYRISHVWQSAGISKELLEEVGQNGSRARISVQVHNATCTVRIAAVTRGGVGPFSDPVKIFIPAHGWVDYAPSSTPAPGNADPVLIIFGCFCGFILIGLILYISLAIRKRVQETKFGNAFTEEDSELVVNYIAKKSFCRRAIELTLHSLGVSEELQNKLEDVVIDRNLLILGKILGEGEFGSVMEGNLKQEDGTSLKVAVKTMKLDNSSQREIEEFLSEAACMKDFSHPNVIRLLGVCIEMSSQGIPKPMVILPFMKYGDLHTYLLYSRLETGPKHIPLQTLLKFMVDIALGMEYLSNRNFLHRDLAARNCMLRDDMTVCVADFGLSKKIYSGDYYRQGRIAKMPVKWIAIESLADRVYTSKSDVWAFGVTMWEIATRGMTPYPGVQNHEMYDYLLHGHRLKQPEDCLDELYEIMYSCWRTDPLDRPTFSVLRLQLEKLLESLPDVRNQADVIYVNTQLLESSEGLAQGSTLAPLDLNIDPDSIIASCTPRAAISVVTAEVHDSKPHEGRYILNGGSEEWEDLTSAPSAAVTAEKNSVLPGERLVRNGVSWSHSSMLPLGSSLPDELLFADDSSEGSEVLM

[2] = target: Tyrosine-protein kinase ABL1 (Homo sapiens) (UniProt P00519); assay: Binding affinity to human wild type ABL1 (229 to 512 residues) expressed in mammalian expression system assessed as fraction of unbound kinase to substrate at 0.1 uM after 1 hr by KinomeScan assay
[3] = target: Serine/threonine-protein kinase B-raf (Homo sapiens) (UniProt P15056); assay: Binding affinity to wild-type human partial length BRAF (S429 to E741 residues) expressed in mammalian expression system assessed as fraction of unbound kinase to substrate at 0.1 uM after 1 hr by KinomeScan assay
[4] = target: Cyclin-dependent kinase 2 (Homo sapiens) (UniProt P24941); assay: Binding affinity to wild-type human full length CDK2 (M1 to L298 residues) expressed in bacterial expression system assessed as fraction of unbound kinase to substrate at 10 uM after 1 hr by KinomeScan assay
[5] = target: Fibroblast growth factor receptor 1 (Homo sapiens) (UniProt P11362); assay: Binding affinity to wild-type human partial length FGFR1 (P357 to V669 residues) expressed in bacterial expression system assessed as fraction of unbound kinase to substrate at 0.1 uM after 1 hr by KinomeScan assay
[6] = target: Fibroblast growth factor receptor 1 (Homo sapiens) (UniProt P11362); assay: Binding affinity to wild-type human partial length FGFR1 (P357 to V669 residues) expressed in bacterial expression system assessed as fraction of unbound kinase to substrate at 1 uM after 1 hr by KinomeScan assay
[7] = Drug localization in cytoplasm of human A549 cells at 10 uM after 24 hrs by NanoSIMS analysis; assay type: ADME, subcellular; settings: a549, 24 h
[8] = Drug localization in nucleus of human MGHU3 cells at 10 uM after 24 hrs by NanoSIMS analysis; assay type: ADME, subcellular; settings: mghu3, 24 h
[9] = Drug localization in nucleus of human A549 cells at 10 uM after 24 hrs by NanoSIMS analysis; assay type: ADME, subcellular; settings: a549, 24 h
[10] = Solubility of the compound in 0.2% DMSO; assay type: physicochemical
[11] = organism: Homo sapiens; assay: Selectivity ratio of IC50 for recombinant GST-tagged human Mer (578 to 872 residues) cytoplasmic domain to IC50 for recombinant His-tagged human Axl (473 to end residues) cytoplasmic domain
[12] = organism: Homo sapiens; assay: Selectivity ratio of IC50 for recombinant GST-tagged human Tyro3 (451 to 890 residues) cytoplasmic domain to IC50 for recombinant His-tagged human Axl (473 to end residues) cytoplasmic domain

Chain of Serine/threonine-protein kinase B-raf (Homo sapiens) (P15056 whole entry, the tested form may be a part): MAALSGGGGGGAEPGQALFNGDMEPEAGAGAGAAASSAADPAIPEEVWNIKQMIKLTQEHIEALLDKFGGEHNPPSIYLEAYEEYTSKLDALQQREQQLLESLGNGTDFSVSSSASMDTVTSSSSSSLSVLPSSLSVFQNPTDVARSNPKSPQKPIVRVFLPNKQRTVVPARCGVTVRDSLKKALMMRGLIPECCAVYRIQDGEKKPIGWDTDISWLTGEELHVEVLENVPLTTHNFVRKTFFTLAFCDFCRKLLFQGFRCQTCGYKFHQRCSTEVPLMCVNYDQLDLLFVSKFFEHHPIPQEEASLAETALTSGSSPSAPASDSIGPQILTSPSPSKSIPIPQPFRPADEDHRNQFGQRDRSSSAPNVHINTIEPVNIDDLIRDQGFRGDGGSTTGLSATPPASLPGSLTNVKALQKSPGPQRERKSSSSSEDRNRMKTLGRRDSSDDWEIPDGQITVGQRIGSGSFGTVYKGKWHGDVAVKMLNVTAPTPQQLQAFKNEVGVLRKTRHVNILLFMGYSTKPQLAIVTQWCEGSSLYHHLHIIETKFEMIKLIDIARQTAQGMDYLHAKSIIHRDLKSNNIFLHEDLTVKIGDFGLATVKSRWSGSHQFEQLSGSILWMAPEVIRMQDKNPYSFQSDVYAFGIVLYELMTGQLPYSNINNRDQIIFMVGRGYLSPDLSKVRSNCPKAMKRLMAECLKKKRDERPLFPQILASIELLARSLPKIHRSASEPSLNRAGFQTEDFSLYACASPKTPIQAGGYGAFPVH
Chain of Tyrosine-protein kinase ABL1 (Homo sapiens) (P00519 whole entry, the tested form may be a part): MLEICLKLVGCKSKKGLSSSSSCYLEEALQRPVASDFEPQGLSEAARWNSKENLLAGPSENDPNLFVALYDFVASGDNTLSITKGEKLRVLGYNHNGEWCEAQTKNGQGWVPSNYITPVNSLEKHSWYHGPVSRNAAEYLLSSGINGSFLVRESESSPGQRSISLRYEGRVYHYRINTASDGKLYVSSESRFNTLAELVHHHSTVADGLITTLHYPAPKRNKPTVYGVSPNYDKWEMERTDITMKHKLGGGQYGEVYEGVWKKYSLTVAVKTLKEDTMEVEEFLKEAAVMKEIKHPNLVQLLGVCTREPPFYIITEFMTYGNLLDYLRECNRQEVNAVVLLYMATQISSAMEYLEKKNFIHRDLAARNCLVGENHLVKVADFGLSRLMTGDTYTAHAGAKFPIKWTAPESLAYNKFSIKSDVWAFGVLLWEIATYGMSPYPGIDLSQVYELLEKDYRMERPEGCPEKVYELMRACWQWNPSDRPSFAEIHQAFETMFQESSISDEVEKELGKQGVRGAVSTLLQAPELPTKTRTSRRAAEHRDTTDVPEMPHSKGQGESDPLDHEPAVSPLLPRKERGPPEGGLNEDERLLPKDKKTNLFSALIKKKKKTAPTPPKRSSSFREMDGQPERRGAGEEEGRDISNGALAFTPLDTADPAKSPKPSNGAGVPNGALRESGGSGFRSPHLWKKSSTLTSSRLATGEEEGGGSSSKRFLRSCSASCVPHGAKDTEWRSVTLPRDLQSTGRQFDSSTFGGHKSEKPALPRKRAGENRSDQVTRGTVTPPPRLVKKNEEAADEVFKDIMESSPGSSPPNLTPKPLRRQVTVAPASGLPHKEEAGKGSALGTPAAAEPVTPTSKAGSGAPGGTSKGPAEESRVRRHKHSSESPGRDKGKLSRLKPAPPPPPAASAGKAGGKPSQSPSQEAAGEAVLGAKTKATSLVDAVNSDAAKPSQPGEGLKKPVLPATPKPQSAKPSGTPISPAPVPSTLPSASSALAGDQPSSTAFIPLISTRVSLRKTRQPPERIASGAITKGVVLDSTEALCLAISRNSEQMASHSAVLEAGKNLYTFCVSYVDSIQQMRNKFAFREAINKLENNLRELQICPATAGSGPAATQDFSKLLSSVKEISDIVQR
Chain of Fibroblast growth factor receptor 1 (Homo sapiens) (P11362 22-822 limits assumed): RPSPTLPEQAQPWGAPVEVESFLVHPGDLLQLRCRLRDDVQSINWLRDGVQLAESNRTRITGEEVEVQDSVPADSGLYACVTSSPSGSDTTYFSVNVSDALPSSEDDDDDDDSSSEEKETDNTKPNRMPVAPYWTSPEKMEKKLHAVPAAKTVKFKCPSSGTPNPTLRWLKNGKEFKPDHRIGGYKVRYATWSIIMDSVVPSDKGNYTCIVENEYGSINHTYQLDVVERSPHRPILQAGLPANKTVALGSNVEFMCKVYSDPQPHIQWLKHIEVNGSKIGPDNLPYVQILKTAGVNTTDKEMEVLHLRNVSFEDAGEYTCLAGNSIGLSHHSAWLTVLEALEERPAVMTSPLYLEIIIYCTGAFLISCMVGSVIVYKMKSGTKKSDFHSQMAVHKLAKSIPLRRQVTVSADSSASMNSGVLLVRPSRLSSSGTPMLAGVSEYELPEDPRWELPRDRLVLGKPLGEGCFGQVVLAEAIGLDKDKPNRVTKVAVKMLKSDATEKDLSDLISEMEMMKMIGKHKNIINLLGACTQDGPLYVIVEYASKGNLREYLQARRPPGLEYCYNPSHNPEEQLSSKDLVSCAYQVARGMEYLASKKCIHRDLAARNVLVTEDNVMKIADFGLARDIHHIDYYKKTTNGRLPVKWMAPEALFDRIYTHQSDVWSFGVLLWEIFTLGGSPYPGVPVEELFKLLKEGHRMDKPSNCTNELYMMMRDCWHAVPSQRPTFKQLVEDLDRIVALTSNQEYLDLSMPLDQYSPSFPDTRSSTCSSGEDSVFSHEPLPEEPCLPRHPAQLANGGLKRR

inhibition [1] | Activity [2] [%] | Activity [3] [%] | Activity [4] [%] | Activity [5] [%] | Activity [6] [%] | Drug uptake [7] | Drug uptake [8] | Drug uptake [9] | solubility [10] | Ratio IC50 [11] | Ratio IC50 [12] | Compound
inactive | 1 | 0 | 3 | 8 | 2 |  |  |  |  |  |  | Cc1cnc2[nH]cnc2c1Oc1ccc(NC(=O)c2cccn(-c3ccc(F)cc3)c2=O)cc1F
Active | 1 | 0 | 99.7 | 7 | 1 | Active | Active | Active |  |  |  | CC(C)c1nc2c(Oc3ccc(NC(=O)c4cccn(-c5ccc(F)cc5)c4=O)cc3F)ccnc2[nH]1
inactive | 0 | 0 | 32 | 7 | 1 |  |  |  | Insoluble |  |  | O=C(Nc1ccc(Oc2c(Br)cnc3[nH]cnc23)c(F)c1)c1cccn(-c2ccc(F)cc2)c1=O
Active | 2 | 9 | 48 | 1 | 2 |  |  |  |  | 120 to 900 | 120 to 900 | O=C(Nc1ccc(Oc2ccnc3[nH]cnc23)c(F)c1)c1cccn(-c2ccc(F)cc2)c1=O
